Assay results taken from doi:10.1101/2024.12.09.627564, “Cannabinoid inhibition of mechanosensitive K^+ channels” (bioRxiv, 2024).

Target: T1, Danio rerio TREK-1 (Danio rerio, UniProt F1QAI2)
T1 sequence (F1QAI2 1-426): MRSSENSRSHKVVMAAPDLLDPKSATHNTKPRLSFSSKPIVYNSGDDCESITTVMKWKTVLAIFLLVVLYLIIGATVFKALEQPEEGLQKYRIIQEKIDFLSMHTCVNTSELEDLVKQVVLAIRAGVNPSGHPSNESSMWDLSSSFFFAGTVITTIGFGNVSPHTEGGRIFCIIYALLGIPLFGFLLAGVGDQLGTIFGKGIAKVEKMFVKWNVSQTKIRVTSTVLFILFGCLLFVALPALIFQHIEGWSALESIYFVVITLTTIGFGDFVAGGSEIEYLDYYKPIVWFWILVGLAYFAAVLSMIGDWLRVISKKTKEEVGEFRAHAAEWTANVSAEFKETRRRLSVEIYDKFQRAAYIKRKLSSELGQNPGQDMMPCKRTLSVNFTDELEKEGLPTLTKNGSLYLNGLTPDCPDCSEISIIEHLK
Test: Patch recording of Danio rerio TREK-1 from cultured cells
Format: biochemical
Conditions: IC50, Danio rerio TREK-1, patches
Description: For patch clamp recording from cultured cells, drTREK-1 or hsTRAAK genes were cloned into a modified pCEH vector to generate C-terminally EGFP-tagged constructs. HEK293T were cultured in DMEM (Gibco, Thermo Fisher Scientific) with 10% FBS and 100 U ml−1 penicillin and 100 μg ml−1 streptomycin. Trypsinized cells were deposited on 12-mm glass coverslips in a six-well dish one to two days before transfection. For transfection, drTREK-1 or hsTRAAK plasmids were mixed with FuGENE 6 in OptiMEM at a 1:3 ratio with 1 μg DNA per well per construct and applied to cells in growth medium with antibiotics. Patching was conducted from 24 to 60 h post-transfection. Coverslips were placed in a perfusion chamber at room temperature in isotonic bath solution: 135 mM NaCl, 15 mM KCl, 1 mM CaCl2, 1 mM MgCl2, 10 mM HEPES, adjusted to a final pH of 7.5 with NaOH. Cells were chosen by a combination of the presence GFP fluorescence and cell morphology consistent with healthy interphase cells. […]
Patches were evaluated with voltage-step protocols to confirm TRAAK expression and minimal non-specific leak based on reversal potential. Currents were recorded using an Axopatch 200B amplifier (Molecular Devices) at a bandwidth of 1 kHz and digitized with an Digidata 1550B (Molecular Devices) at 100–500 kHz using pClamp10.7 software. […] Data were analyzed using Clampfit 10.7, Excel, and Graphpad Prism software. […]

## C=C(C)[C@@H]1CCC(C)=C[C@H]1c1c(O)cc(CCCCC)cc1O [CBD, Cannabidiol]
  IC50: 11.1 µM
